Measured values: patent US11458212B2, “Molecular imaging of cancer cells in vivo” (H. Lee Moffitt Cancer Center and Research Institute, Inc., priority 2011, dated 2022)
Where two headings read alike, the source gives them in different places.

Target: TLR2 (Homo sapiens, UniProt O60603)
Test: In vitro TLR2 functional bioassay (NF-κB luciferase, HEK293/hTLR2 cells)
Format: cell-based
Design: host or cells: HEK293 stably transfected with pUNO-hTLR2, transiently transfected with the pNifty-Luc reporter
[1] = dose-response 0.001 ng/mL to 10 μg/mL, read-out: TLR2 Agonist Activity EC50
[2] = log(agonist) vs. normalized response, doses 0.01 ng/mL to 1 μg/mL, read-out: EC50

Chain of TLR2 (O60603 21-784): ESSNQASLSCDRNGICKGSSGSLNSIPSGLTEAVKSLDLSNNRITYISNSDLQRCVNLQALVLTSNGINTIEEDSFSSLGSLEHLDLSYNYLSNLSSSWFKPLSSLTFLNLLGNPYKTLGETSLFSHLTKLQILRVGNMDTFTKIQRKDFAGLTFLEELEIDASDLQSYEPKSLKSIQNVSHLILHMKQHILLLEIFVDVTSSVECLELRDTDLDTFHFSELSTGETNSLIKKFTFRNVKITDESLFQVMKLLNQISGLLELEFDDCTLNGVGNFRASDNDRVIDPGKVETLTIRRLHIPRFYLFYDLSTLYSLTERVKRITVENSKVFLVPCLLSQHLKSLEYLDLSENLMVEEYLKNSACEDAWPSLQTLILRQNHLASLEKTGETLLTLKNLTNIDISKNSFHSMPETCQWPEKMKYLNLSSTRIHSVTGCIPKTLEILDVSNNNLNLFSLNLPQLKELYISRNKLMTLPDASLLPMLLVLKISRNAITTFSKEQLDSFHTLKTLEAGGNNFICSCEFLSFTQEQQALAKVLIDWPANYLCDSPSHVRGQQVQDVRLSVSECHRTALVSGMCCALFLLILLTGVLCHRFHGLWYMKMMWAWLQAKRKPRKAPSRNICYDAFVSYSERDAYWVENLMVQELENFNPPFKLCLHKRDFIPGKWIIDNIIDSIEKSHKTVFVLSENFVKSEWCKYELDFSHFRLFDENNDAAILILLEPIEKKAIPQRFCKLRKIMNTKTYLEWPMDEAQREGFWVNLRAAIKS
Chain of TLR2 (Q9Y2C9 32-796 partner): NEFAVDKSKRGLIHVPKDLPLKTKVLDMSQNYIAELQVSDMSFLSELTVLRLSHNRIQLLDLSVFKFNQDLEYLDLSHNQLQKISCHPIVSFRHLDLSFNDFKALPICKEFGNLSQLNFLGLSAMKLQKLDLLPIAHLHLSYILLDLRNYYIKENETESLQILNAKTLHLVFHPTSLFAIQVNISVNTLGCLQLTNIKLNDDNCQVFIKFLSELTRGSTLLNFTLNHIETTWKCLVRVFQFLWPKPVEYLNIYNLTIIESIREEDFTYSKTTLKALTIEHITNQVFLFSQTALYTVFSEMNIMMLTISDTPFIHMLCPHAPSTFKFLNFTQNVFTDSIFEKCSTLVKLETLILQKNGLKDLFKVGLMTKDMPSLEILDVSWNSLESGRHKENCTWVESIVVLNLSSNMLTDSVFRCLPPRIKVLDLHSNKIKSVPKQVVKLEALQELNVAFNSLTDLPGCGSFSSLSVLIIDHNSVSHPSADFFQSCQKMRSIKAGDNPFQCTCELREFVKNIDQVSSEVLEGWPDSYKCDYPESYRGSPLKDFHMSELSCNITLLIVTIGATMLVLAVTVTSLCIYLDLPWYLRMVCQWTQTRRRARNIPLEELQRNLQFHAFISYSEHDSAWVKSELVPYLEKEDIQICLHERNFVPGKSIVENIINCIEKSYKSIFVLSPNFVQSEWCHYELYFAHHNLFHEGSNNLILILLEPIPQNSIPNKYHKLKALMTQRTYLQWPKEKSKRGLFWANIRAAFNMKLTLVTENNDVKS

EC50 [1] [nM]	EC50 [2] [nM]	luciferase activity relative to cells incubated with no ligand (24 h post ligand stimulation, n=6) [fold]	Structure (SMILES)
3.7	3.66		CCCCCCCCCCCCCCCC(=O)OCC(CSC[C@H](N)C(=O)N[C@@H](CO)C(=O)N[C@@H](CCCCN)C(=O)N[C@@H](CCCCN)C(=O)N[C@@H](CCCCN)C(=O)N[C@@H](CCCCN)C(=O)O)OC(=O)CCCCCCCCCCCCCCC (mixture of isomers) [Pam2CSK4, S-[2,3-bis(palmitoyloxy)-(2RS)-propyl]-[R]-cysteinyl-[S]-seryl-[S]-lysyl-[S]-lysyl-[S]-lysyl-[S]-lysine, reference compound]
23	22.5	50	CCCCCCCCCCCCCCCC(=O)N[C@@H](CSCC(COC(=O)CCCCCCCCCCCCCCC)OC(=O)CCCCCCCCCCCCCCC)C(=O)N[C@@H](CO)C(=O)N[C@@H](CCCCN)C(=O)N[C@@H](CCCCN)C(=O)N[C@@H](CCCCN)C(=O)N[C@@H](CCCCN)C(=O)O (mixture of isomers) [Pam3CSK4, N-Palmitoyl-S-[2,3-bis(palmitoyloxy)-(2RS)-propyl]-[R]-cysteinyl-[S]-seryl-[S]-lysyl-[S]-lysyl-[S]-lysyl-[S]-lysine, reference compound]
